Measurements as given in patent US20230104487A1, “11-(4-CHLOROPHENYL)-4-(2,3-DIHYDRO-1H-INDOLE-1-CARBONYL)-3,11-DIMETHYL-5,10,DIOXATRICYCLO[7.4.0.0,2,6,]TRIDECA-1,3,6,8-TETRAEN-13-ONE AND DERIVATIVES AS DESTABILIZER OF CRY1 FOR THE TREATMENT OF CIRCADIAN RHYTHM ASSOCIATED DISEASES AND DISORDERS” (KOC UNIVERSITESI, priority 2019, published 2023).

Assays:
U2-OS cells = assay: Cell cytotoxicity test (MTT); assay type: cell-based, human; settings: dose dependent
Protocol: Human osteosarcoma U2-OS cell lines were used for the cytotoxicity assay. Cells were seeded in triplicate to clear 96-well plates with 4000 cells/well then grown for 48 h. Cells were treated with molecules at desired concentrations (final DMSO concentration 0.5%) in DMEM. Cells were incubated with molecules for 48 h. Cell viability was measured by adding tetrazolium dye 3-[4,5-dimethylthiazol-2-yl]-2,5 diphenyl tetrazolium bromide (MTT) which is converted to insoluble purple color formazan as a result of the mitochondrial activity. To measure the purple color after incubating cells with MTT reagent medium was replaced with DMSO:EtOH (50:50) mixture for 4 hours and absorbance of wells were measured at 570 nm by the spectrophotometer. Cells treated with 5% final DMSO concentration (known as toxic to cells) as […] controls.
Initially, toxicity of selected molecules was assessed by MTT using immortalized human osteosarcoma (U2-OS) cells at concentrations of 20 μM, 10 μM and, 2.5 μM. Molecules with relative cell viability less than 90% at 2.5 μM were eliminated. […] In this assay the effect of the 14 molecules were measured according to the CRYL::LUC decay rate. […] Then cells were treated with cycloheximide (CHX) to inhibit the protein synthesis and bioluminescence was recorded for 18 h. […]

BMAL1 = BMAL1 mRNA and protein, synchronized U2-OS cells; assay type: cell-based, human; settings: 10 μM
Protocol: Cells were lysed in RIPA buffer (50 mM Tris, 150 mM NaCl, 1% Triton-X, 0.1% SDS) with fresh Protease inhibitor cocktail (PIC). After centrifugation at 13000 rpm for 15 minutes at 4° C., supernatant was used to determine the protein amount using Pierce Protein Assay (Thermo Scientific) according to the manufacturer's instruction. Mice liver samples were homogenized and lysed with Dounce homogenizer and RIPA buffer. After homogenization samples were incubated 10 minutes on ice. After centrifugation 13000 rpm 15 minutes at 4° C. supernatant was used for the whole cell lysate. Subcellular fractionation of liver samples: Liver samples were homogenized with cytosolic lysis buffer (10 mM HEPES pH 7.9, 10 mM KCl, 0.1 mM EDTA, 0.05% NP40, proteasome inhibitor) by pipetting 40 times with a cut tip. Then samples were incubated 10 minutes on ice and centrifuged for 3 minutes at 3000 rpm at 4° C. Supernatant was saved in a new tube, and pellet was processed for the nuclear fraction. […] ECL buffer system (Advansta WesternBright) was used to visualize HRP chemi-luminescence via BioRad ChemiDoc Touch visualizer.
QIAGEN RNeasy Mini Kit was used to isolate the mRNA. […] Quantity of RNA was determined by Nanodrop 2000 (Thermo Scientific). […] For quantitative real time PCR (qRT-PCR) analysis cDNAs were further diluted 5-fold (1:5). mRNA expression levels were calculated by qRT-PCR with the SYBR Green. […]

[1] = Plasma pharmacokinetics in mice; assay type: in vivo; settings: female, C57BL/6J, mouse, ip, 100 mg/kg, single dose, i.p., read-out: AUC0-24

## Cc1c(C(=O)N2CCc3ccccc32)oc2ccc3c(c12)C(=O)CC(C)(c1ccc(Cl)cc1)O3 (stereo not drawn) [FORMULA I, 11-(4-chlorophenyl)-4-(2,3-dihydro-1H-indole-1-carbonyl)-3,11-dimethyl-5,10,dioxatricyclo[7.4.0.0,2,6,]trideca-1,3,6,8-tetraen-13-one]
U2-OS cells
  toxicity on U2-OS cells: no effect on the stability of LUC and any toxic effect
BMAL1
  mRNA and protein levels of BMAL1: Decreased mRNA and protein levels of BMAL1
[1]
  AUC(0-t): 4920 ± 3070 ng·h/mL
